Experimental data from patent US20090057619A1, “Compositions and Visual Perception Changing Methods” (priority 2007, published 2009).
Values belong to the molecule of their own block, whether it stands above or below them.

Key:
[1] = cited from earlier work; for reported pKa: @ 25° C.
[2] = pKa of BTB estimated by spectrophotometric titration in water and in model dishwashing detergent; type: physicochemical
Text: Example of color change—pKa measurements—As outlined in the methods described by Brode (Journal of the American Chemical Society, Vol. 46, pp 581-596, 1924) and Puschett et al (Talanta, Vol. 38, Issue #3, pp 335-338, 1991), the pKa of bromothymol blue (BTB) is estimated in water and a model dishwashing detergent containing approximately 30% surfactant (combination of alkylethoxysulfonate and amine oxide). In the absence of detergent, stock solutions of BTB (6-20 ppm) are first adjusted to a pH of 11-12 and titrated with 1% HCl down to a pH of 4.0. After each pH adjustment the absorbance peak at 617 nm (Abs1) is measured and pKa estimated from the abscissa of the point of inflection. In similar fashion, BTB is added at a 60 ppm level to the dishwashing detergent, diluted 10-100 fold with deionized water and titrated with 1% HCl.

[3] = Ratio of absorbances Abs1:Abs2 as a function of product dilution, pH kept at 9.0; type: physicochemical; conditions: pH 9.0; for Abs1:Abs2: no detergent
Protocol: Example of color change—pH is kept constant upon dilution—As shown in Tables 1 and 2 below, bromothymol blue (BTB) is assessed in representative nil-dye versions of representative hand dishwashing products: a) Dawn® Bleach Alternative, b) Dreft®, and c) nil-dye Fairy® Liquid. In a typical procedure, BTB is directly added to the hand dishwashing detergent (60 ppm BTB) and the visible spectrum monitored (λ=400-700 nm) as a function of product dilution with deionized water. After each dilution, the detergent solution is adjusted to pH 9.0 with 0.1% NaOH and the ratio of absorbances at λmax=615-635 nm (Abs1) and λmax=395-435 nm (Abs2) measured. For comparison, a 60 ppm aqueous solution of BTB is prepared and sequentially diluted with deionized water, the pH again adjusted to 9.0 after each dilution (Table 2).
For the dishwashing detergents containing BTB, the ratio Abs1:Abs2 increases upon dilution, the most significant increase occurring at product concentrations ≦2.5%. […] Absorption measurements for Tables 1 and 2 are made on an HP UV/Visibile 8453 Spectrophotometer (Hewlett-Packard).

- pKa ([2]; model dishwashing detergent diluted with deionized water, detergent conc 1 %, model dishwashing detergent (approx. 30% surfactant)): 8.2
- pKa ([2]; model dishwashing detergent diluted with deionized water, detergent conc 5 %, model dishwashing detergent (approx. 30% surfactant)): 9
- pKa ([2]; model dishwashing detergent diluted with deionized water, detergent conc 10 %, model dishwashing detergent (approx. 30% surfactant)): 9.4
- pKa ([2]; water without detergent, detergent conc 0 % (water, absence of detergent)): 7.3
- Abs1:Abs2 ([3]; BTB in water 0.3 ppm (product conc. 0.5 %)): 5.00
- Abs1:Abs2 ([3]; BTB in water 0.6 ppm (product conc. 1 %)): 4.68
- Abs1:Abs2 ([3]; BTB in water 1.2 ppm (product conc. 2 %)): 4.14
- Abs1:Abs2 ([3]; BTB in water 2.4 ppm (product conc. 4 %)): 4.59
- Abs1:Abs2 ([3]; BTB in water 3.0 ppm (product conc. 5 %)): 4.37
- Abs1:Abs2 ([3]; BTB in water 3.6 ppm (product conc. 6 %)): 4.52
- Abs1:Abs2 ([3]; BTB in water 4.8 ppm (product conc. 8 %)): 4.35
- Abs1:Abs2 ([3]; BTB in water 6.0 ppm (product conc. 10 %)): 4.47
- Abs1:Abs2 ([3]; BTB in water 7.2 ppm (product conc. 12 %)): 4.31
- Abs1:Abs2 ([3]; BTB in water 9.6 ppm (product conc. 16 %)): 4.29
- Abs1:Abs2 ([3]; BTB in water 10.8 ppm (product conc. 18 %)): 4.23
- Abs1:Abs2 ([3]; BTB in water 12.0 ppm (product conc. 20 %)): 4.16
- change in the ratio Abs1:Abs2 upon dilution ([3]; dilution with deionized water): no significant change
SMILES: Cc1c(C2(c3cc(C(C)C)c(O)c(Br)c3C)OS(=O)(=O)c3ccccc32)cc(C(C)C)c(O)c1Br [BTB, bromothymol blue]
- reported pKa [1]: 7.1
- pKa, literature value [1]: 7.1

SMILES: Cc1c(C2(c3cc(Br)c(O)c(Br)c3C)OS(=O)(=O)c3ccccc32)cc(Br)c(O)c1Br [bromocresol green]
- reported pKa [1]: 4.7

SMILES: Cc1cc(C2(c3cc(C)c(O)c(Br)c3)OS(=O)(=O)c3ccccc32)cc(Br)c1O [bromocresol purple]
- reported pKa [1]: 6.3

SMILES: O=S1(=O)OC(c2cc(Br)c(O)c(Br)c2)(c2cc(Br)c(O)c(Br)c2)c2ccccc21 [bromophenol blue]
- reported pKa [1]: 4.0

SMILES: Cc1cc(C2(c3cc(C)c(O)c(Br)c3C)OS(=O)(=O)c3ccccc32)c(C)c(Br)c1O [bromoxylenol blue]
- reported pKa [1]: 7.0
